Strand notation (5' to 3'): a small letter for the sugar, then the base; units joined by * are phosphorothioate-linked, units joined directly phosphodiester-linked; [ ] holds rarer units or linkages, { } end groups; capitals alone tell only the bases. e = 2'-O-(2-methoxyethyl) (MOE); [5mC] = 5-methylcytosine; d = 2'-deoxy (DNA)
System: PCSK9 mRNA
Format: cell-based, human
Details: Hep3B cells, 100 nM, relative to untreated control cells; for % Inhib: 0 = no reduction observed
Description: When cells reached appropriate confluency, they were treated with oligonucleotide using LIPOFECTIN® as described. […] Cells were treated and data were obtained in duplicate or triplicate. […] Cells were harvested 16-24 hours after oligonucleotide treatment.
Prior to quantitative PCR analysis, primer-probe sets specific to the target gene being measured were evaluated for their ability to be “multiplexed” with a GAPDH amplification reaction. After isolation the RNA is subjected to sequential reverse transcriptase (RT) reaction and real-time PCR, both of which are performed in the same well. RT and PCR reagents were obtained from Invitrogen Life Technologies (Carlsbad, Calif.). […] The RT reaction was carried out by incubation for 30 minutes at 48° C. Following a 10 minute incubation at 95° C. to activate the PLATIN 9M® Taq, 40 cycles of a two-step PCR protocol were carried out: 95° C. for 15 seconds (denaturation) followed by 60° C. for 1.5 minutes (annealing/extension).
170 μL of RiboGreen® working reagent (RiboGreen® reagent diluted 1:350 in 10 mM Tris-HCl, 1 mM EDTA, pH 7.5) was pipetted into a 96-well plate containing 30 μL purified cellular RNA. The plate was read in a CytoFluor® 4000 (PE Applied Biosystems) with excitation at 485 nm and emission at 530 nm.
Short antisense compounds targeted to a PCSK9 nucleic acid were tested for their effects on PCSK9 mRNA in vitro. The Isis No, gapmer motif and SEQ ID NO of each short antisense compound are shown again in Table 75. Cultured Hep3B cells were treated with 100 nM of short antisense compound. 5-10-5 MOE gapmers targeted to a PCSK9 nucleic acid were used as positive controls. After the treatment period, RNA was isolated from the cells and PCSK9 mRNA levels were measured by quantitative real-time PCR, as described herein. PCSK9 mRNA levels were adjusted according to total RNA content as measured by RIBOGREEN®. Results are presented in Table 75 as percent inhibition of PCSK9 (% Inhib), relative to untreated control cells.

## 400318 (antisense e[5mC]*e[5mC]*dT*dA*dT*dG*dA*dG*dG*dG*dT*dG*e[5mC]*e[5mC]) [compound 400318]
  % Inhibition Range: 20-30%
  % Inhib: 26%

## 400319 (antisense e[5mC]*eG*dA*dA*dT*dA*dA*dA*d[5mC]*dT*d[5mC]*d[5mC]*eA*eG) [compound 400319]
  % Inhib: 0%

## 400320 (antisense e[5mC]*e[5mC]*dG*dA*dA*dT*dA*dA*dA*d[5mC]*dT*d[5mC]*e[5mC]*eA) [compound 400320]
  % Inhib: 0%

## 400321 (antisense eT*e[5mC]*d[5mC]*dG*dA*dA*dT*dA*dA*dA*d[5mC]*dT*e[5mC]*e[5mC]) [compound 400321]
  % Inhib: 0%

## 400322 (antisense eT*eT*d[5mC]*d[5mC]*dG*dA*dA*dT*dA*dA*dA*d[5mC]*eT*e[5mC]) [compound 400322]
  % Inhib: 0%

## 400323 (antisense eG*e[5mC]*d[5mC]*dA*dG*dG*dG*dG*d[5mC]*dA*dG*d[5mC]*eA*eG) [compound 400323]
  % Inhib: 0%

## 400324 (antisense eG*eA*dG*dT*dA*dG*dA*dG*dG*d[5mC]*dA*dG*eG*e[5mC]) [compound 400324]
  % Inhib: 7%

## 400325 (antisense e[5mC]*e[5mC]*d[5mC]*d[5mC]*dA*dA*dA*dG*dT*d[5mC]*d[5mC]*d[5mC]*e[5mC]*eA) [compound 400325]
  % Inhib: 4%

## 400326 (antisense eT*e[5mC]*d[5mC]*d[5mC]*d[5mC]*dA*dA*dA*dG*dT*d[5mC]*d[5mC]*e[5mC]*e[5mC]) [compound 400326]
  % Inhib: 0%

## 400328 (antisense eA*e[5mC]*dG*dT*dG*dG*dG*d[5mC]*dA*dG*d[5mC]*dA*eG*e[5mC]) [compound 400328]
  % Inhibition Range: 10-20%
  % Inhib: 13%

## 400329 (antisense e[5mC]*eA*d[5mC]*dG*dT*dG*dG*dG*d[5mC]*dA*dG*d[5mC]*eA*eG) [compound 400329]
  % Inhibition Range: 10-20%
  % Inhib: 14%

## 400332 (antisense e[5mC]*eA*dG*dG*dG*dA*dA*d[5mC]*d[5mC]*dA*dG*dG*e[5mC]*e[5mC]) [compound 400332]
  % Inhib: 0%

## 400333 (antisense eT*e[5mC]*dA*dG*dG*dG*dA*dA*d[5mC]*d[5mC]*dA*dG*eG*e[5mC]) [compound 400333]
  % Inhib: 0%

## 400334 (antisense e[5mC]*eT*d[5mC]*dA*dG*dG*dG*dA*dA*d[5mC]*d[5mC]*dA*eG*eG) [compound 400334]
  % Inhib: 0%

## 400335 (antisense e[5mC]*e[5mC]*dT*d[5mC]*dA*dG*dG*dG*dA*dA*d[5mC]*d[5mC]*eA*eG) [compound 400335]
  % Inhib: 0%

## 400336 (antisense eT*e[5mC]*d[5mC]*dT*d[5mC]*dA*dG*dG*dG*dA*dA*d[5mC]*e[5mC]*eA) [compound 400336]
  % Inhib: 4%

## 400337 (antisense eG*eT*d[5mC]*d[5mC]*dT*d[5mC]*dA*dG*dG*dG*dA*dA*e[5mC]*e[5mC]) [compound 400337]
  % Inhib: 0%

## 400338 (antisense eG*eG*dT*d[5mC]*d[5mC]*dT*d[5mC]*dA*dG*dG*dG*dA*eA*e[5mC]) [compound 400338]
  % Inhib: 9%

## 400339 (antisense eT*eG*dG*dT*d[5mC]*d[5mC]*dT*d[5mC]*dA*dG*dG*dG*eA*eA) [compound 400339]
  % Inhib: 0%

## 400340 (antisense e[5mC]*eT*dG*dG*dT*d[5mC]*d[5mC]*dT*d[5mC]*dA*dG*dG*eG*eA) [compound 400340]
  % Inhib: 0%

## 400341 (antisense eG*e[5mC]*dT*dG*dG*dT*d[5mC]*d[5mC]*dT*d[5mC]*dA*dG*eG*eG) [compound 400341]
  % Inhib: 0%

## 400342 (antisense eG*eT*dG*d[5mC]*dT*dG*dG*dG*dG*dG*dG*d[5mC]*eA*eG) [compound 400342]
  % Inhib: 0%

## 400343 (antisense eG*eG*dT*dG*d[5mC]*dT*dG*dG*dG*dG*dG*dG*e[5mC]*eA) [compound 400343]
  % Inhib: 0%

## 400344 (antisense eG*eG*dG*dT*dG*d[5mC]*dT*dG*dG*dG*dG*dG*eG*e[5mC]) [compound 400344]
  % Inhib: 0%

## 400345 (antisense eT*eG*dG*dG*dT*dG*d[5mC]*dT*dG*dG*dG*dG*eG*eG) [compound 400345]
  % Inhib: 0%

## 400346 (antisense eG*eA*dG*d[5mC]*dA*dG*d[5mC]*dT*d[5mC]*dA*dG*d[5mC]*eA*eG) [compound 400346]
  % Inhib: 5%

## 400347 (antisense eG*eG*dA*dG*d[5mC]*dA*dG*d[5mC]*dT*d[5mC]*dA*dG*e[5mC]*eA) [compound 400347]
  % Inhib: 0%

## 400348 (antisense eT*eG*dG*dA*dG*d[5mC]*dA*dG*d[5mC]*dT*d[5mC]*dA*eG*e[5mC]) [compound 400348]
  % Inhib: 0%

## 400349 (antisense e[5mC]*eT*dG*dG*dA*dG*d[5mC]*dA*dG*d[5mC]*dT*d[5mC]*eA*eG) [compound 400349]
  % Inhibition Range: 10-20%
  % Inhib: 13%

## 400350 (antisense e[5mC]*e[5mC]*d[5mC]*dT*d[5mC]*dA*d[5mC]*d[5mC]*d[5mC]*d[5mC]*d[5mC]*dA*eA*eA) [compound 400350]
  % Inhibition Range: 10-20%
  % Inhib: 15%

## 400351 (antisense eA*e[5mC]*d[5mC]*d[5mC]*dT*d[5mC]*dA*d[5mC]*d[5mC]*d[5mC]*d[5mC]*d[5mC]*eA*eA) [compound 400351]
  % Inhibition Range: 10-20%
  % Inhib: 14%

## 400354 (antisense eG*eA*d[5mC]*dA*d[5mC]*d[5mC]*d[5mC]*dT*d[5mC]*dA*d[5mC]*d[5mC]*e[5mC]*e[5mC]) [compound 400354]
  % Inhibition Range: 10-20%
  % Inhib: 19%

## 400355 (antisense eA*eG*dA*d[5mC]*dA*d[5mC]*d[5mC]*d[5mC]*dT*d[5mC]*dA*d[5mC]*e[5mC]*e[5mC]) [compound 400355]
  % Inhib: 0%

## 400356 (antisense eT*eA*dG*dA*d[5mC]*dA*d[5mC]*d[5mC]*d[5mC]*dT*d[5mC]*dA*e[5mC]*e[5mC]) [compound 400356]
  % Inhib: 0%

## 400357 (antisense eT*eG*dG*d[5mC]*dA*dG*d[5mC]*dA*dG*dG*dA*dA*eG*e[5mC]) [compound 400357]
  % Inhib: 0%

## 400358 (antisense eA*eT*dG*dG*d[5mC]*dA*dG*d[5mC]*dA*dG*dG*dA*eA*eG) [compound 400358]
  % Inhibition Range: 10-20%
  % Inhib: 12%

## 400359 (antisense e[5mC]*eA*dT*dG*dG*d[5mC]*dA*dG*d[5mC]*dA*dG*dG*eA*eA) [compound 400359]
  % Inhib: 0%

## 400360 (antisense eG*e[5mC]*dA*dT*dG*dG*d[5mC]*dA*dG*d[5mC]*dA*dG*eG*eA) [compound 400360]
  % Inhibition Range: 30-40%
  % Inhib: 38%

## 400361 (antisense eG*eG*d[5mC]*dA*dG*d[5mC]*dA*dG*dA*dT*dG*dG*e[5mC]*eA) [compound 400361]
  % Inhib: 2%

## 400362 (antisense e[5mC]*eG*dG*d[5mC]*dA*dG*d[5mC]*dA*dG*dA*dT*dG*eG*e[5mC]) [compound 400362]
  % Inhibition Range: 10-20%
  % Inhib: 16%

## 400363 (antisense e[5mC]*e[5mC]*dG*dG*d[5mC]*dA*dG*d[5mC]*dA*dG*dA*dT*eG*eG) [compound 400363]
  % Inhib: 8%

## 400364 (antisense eT*e[5mC]*d[5mC]*dG*dG*d[5mC]*dA*dG*d[5mC]*dA*dG*dA*eT*eG) [compound 400364]
  % Inhib: 0%

## 400365 (antisense e[5mC]*eT*d[5mC]*d[5mC]*dG*dG*d[5mC]*dA*dG*d[5mC]*dA*dG*eA*eT) [compound 400365]
  % Inhibition Range: 20-30%
  % Inhib: 25%

## 400366 (antisense eG*e[5mC]*dT*d[5mC]*d[5mC]*dG*dG*d[5mC]*dA*dG*d[5mC]*dA*eG*eA) [compound 400366]
  % Inhibition Range: 10-20%
  % Inhib: 15%

## 400367 (antisense eG*eG*d[5mC]*dT*d[5mC]*d[5mC]*dG*dG*d[5mC]*dA*dG*d[5mC]*eA*eG) [compound 400367]
  % Inhibition Range: 10-20%
  % Inhib: 12%

## 400368 (antisense e[5mC]*eG*dG*d[5mC]*dT*d[5mC]*d[5mC]*dG*dG*d[5mC]*dA*dG*e[5mC]*eA) [compound 400368]
  % Inhibition Range: 10-20%
  % Inhib: 11%

## 400369 (antisense e[5mC]*e[5mC]*dG*dG*d[5mC]*dT*d[5mC]*d[5mC]*dG*dG*d[5mC]*dA*eG*e[5mC]) [compound 400369]
  % Inhib: 0%

## 400370 (antisense eG*e[5mC]*d[5mC]*dG*dG*d[5mC]*dT*d[5mC]*d[5mC]*dG*dG*d[5mC]*eA*eG) [compound 400370]
  % Inhibition Range: 10-20%
  % Inhib: 13%

From patent US8372967B2, “Compounds and methods for modulating expression of GCCR” (Isis Pharmaceuticals, Inc., priority 2006, dated 2013)
